The subject of one assay is HCT-116. The assay is described as follows: Cytotoxicity against human HCT116 cells assessed as growth inhibition after 72 hrs by CCK-8 assay. Type of assay: functional, cell-based. The settings on record: HCT-116, 72 h. In general terms: Tetrazolium dyes change colour on reduction, which living cells bring about.
The next assay addresses 26S proteasome. The assay is described as follows: Inhibition of chymotrypsin-like of human 20S proteasome using chromophoric Suc-LLVY-AMC as substrate after 60 mins by fluorescence assay. Type of assay: protein-complex assay.

In general, IC50 refers to the point on the concentration scale where inhibition reaches its midpoint.

Where only a bound is given, the exact number is not on record here.

Consider `CC[C@H](C)[C@@H]1C(=O)O[C@H]1C(=O)NCCC(COCc1ccccc1)COCc1ccccc1`, for which the IC50 in the assay with HCT-116 was greater than 10 µM.
On to `CC(=O)N[C@@H](CC(=O)NCCC(COCc1ccccc1)COCc1ccccc1)C(=O)N[C@@H](CC(C)C)C(=O)[C@@]1(C)CO1`, for which the results for the IC50 on 26S proteasome and in the assay with HCT-116 were 2.3 µM and 1.9 µM, respectively.
`CC(=O)N[C@@H](CC(=O)NCCCCOCc1ccccc1)C(=O)N[C@@H](CC(C)C)C(=O)[C@@]1(C)CO1`: the IC50 at 26S proteasome came to 5.7 µM; in the assay on HCT-116, 2.9 µM.

Values taken from ChEMBL document CHEMBL3286207, “Development of a new class of proteasome inhibitors with an epoxyketone warhead: Rational hybridization of non-peptidic belactosin derivatives and peptide epoxyketones” (Bioorg Med Chem, 2014).
